# Assay results taken from patent US20080318943A1, “Compounds and Uses Thereof - 848” (ASTRAZENECA AB, priority 2007, published 2008).
# Assays:
# GABAA receptor α2β3γ2 = biological target: T1, GABAA receptor α2β3γ2 (Homo sapiens, UniProt P18507+P47869); assay: Two-electrode voltage-clamp potentiation of GABA EC10 current in Xenopus oocytes, GABAA2; assay type: cell-based; details: percentage potentiation of GABA EC10 current divided by that of diazepam
# T1 construct: expressed in transfected cells; host or cells: Xenopus laevis oocytes injected with cRNA
# T1 sequence (P47869 29-451): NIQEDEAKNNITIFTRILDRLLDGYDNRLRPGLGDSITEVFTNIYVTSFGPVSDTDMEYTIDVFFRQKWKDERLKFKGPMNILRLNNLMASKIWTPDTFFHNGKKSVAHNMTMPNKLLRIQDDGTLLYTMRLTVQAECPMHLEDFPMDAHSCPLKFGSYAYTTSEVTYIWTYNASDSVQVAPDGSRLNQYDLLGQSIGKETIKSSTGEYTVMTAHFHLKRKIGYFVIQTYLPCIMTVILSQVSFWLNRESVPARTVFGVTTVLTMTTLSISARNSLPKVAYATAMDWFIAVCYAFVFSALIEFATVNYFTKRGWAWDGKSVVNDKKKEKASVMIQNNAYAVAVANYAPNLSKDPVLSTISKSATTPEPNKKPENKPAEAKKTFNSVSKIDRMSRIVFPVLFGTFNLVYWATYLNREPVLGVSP
# T1 sequence (P28472 26-473 partner): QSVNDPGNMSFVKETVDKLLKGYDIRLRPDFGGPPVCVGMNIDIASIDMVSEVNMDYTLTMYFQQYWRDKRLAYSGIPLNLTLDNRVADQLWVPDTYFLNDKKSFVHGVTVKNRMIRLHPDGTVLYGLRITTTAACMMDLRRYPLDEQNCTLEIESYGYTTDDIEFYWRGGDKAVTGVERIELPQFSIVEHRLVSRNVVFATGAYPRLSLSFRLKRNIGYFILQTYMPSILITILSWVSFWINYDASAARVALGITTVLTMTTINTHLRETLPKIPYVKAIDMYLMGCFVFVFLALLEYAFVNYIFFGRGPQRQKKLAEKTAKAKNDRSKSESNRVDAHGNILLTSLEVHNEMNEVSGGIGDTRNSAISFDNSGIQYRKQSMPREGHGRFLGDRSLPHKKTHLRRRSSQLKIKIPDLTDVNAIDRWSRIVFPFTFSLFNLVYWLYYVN
# T1 sequence (P18507 40-475): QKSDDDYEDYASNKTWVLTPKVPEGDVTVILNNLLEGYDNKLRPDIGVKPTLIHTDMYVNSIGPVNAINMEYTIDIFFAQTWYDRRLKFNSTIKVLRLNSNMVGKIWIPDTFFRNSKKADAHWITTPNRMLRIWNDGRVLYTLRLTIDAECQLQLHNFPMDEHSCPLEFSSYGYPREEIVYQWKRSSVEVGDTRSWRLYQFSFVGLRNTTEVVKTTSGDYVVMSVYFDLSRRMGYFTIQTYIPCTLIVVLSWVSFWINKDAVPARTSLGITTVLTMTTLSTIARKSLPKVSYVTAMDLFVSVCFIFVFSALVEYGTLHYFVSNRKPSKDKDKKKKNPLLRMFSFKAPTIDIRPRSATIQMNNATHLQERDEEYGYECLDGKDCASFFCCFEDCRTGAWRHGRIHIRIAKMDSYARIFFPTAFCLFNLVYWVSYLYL
# Procedure, shortened: (§1)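 Human GABAA receptors expressed in Xenopus oocytes by cRNA injection (α:β:γ molar ratio ~1:1:10 for α1β2γ2, 1:1:1 for α2β3γ2), recorded 2-10 days later by two-electrode voltage clamp at −60 mV in ND-96, pH 7.5. Modulator preapplied 30 s before GABA at per-oocyte EC10. Peak-current percent potentiation over GABA alone, normalised to diazepam.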
# [1] = biological target: T2, GABAA2 receptors (α2, β3, γ2 receptor subunits transfected into Sf9 cells) (Homo sapiens, UniProt P18507+P47869); assay: GABAA2 Binding Method ([3H]-Flunitrazepam displacement); details: [3H]-Flunitrazepam ~2 nM, α2β3γ2 Sf9 membranes, 1 hr at 4° C.
# T2 construct: host or cells: Sf9 cells (membranes)
# T2 sequence (P47869 29-451): as the sequence (P47869 29-451) above
# T2 sequence (P28472 26-473 partner): as the sequence (P28472 26-473 partner) above
# T2 sequence (P18507 40-475): as the sequence (P18507 40-475) above
# Procedure, shortened: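 Displacement of [3H]-flunitrazepam (~2 nM in assay) from recombinant human α2β3γ2 receptors in Sf9 membranes; 1 h incubation at 4 °C, harvest by filtration. Values reported as percent of control, IC50 and Ki.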
# GABAA receptor α1β2γ2 = biological target: T3, GABAA receptor α1β2γ2 (Homo sapiens, UniProt P14867+P18507); assay: Two-electrode voltage-clamp potentiation of GABA EC10 current in Xenopus oocytes, GABAA1; assay type: cell-based; details: percentage potentiation of GABA EC10 current divided by that of diazepam
# T3 construct: expressed in transfected cells; host or cells: Xenopus laevis oocytes injected with cRNA
# T3 sequence (P14867 28-456): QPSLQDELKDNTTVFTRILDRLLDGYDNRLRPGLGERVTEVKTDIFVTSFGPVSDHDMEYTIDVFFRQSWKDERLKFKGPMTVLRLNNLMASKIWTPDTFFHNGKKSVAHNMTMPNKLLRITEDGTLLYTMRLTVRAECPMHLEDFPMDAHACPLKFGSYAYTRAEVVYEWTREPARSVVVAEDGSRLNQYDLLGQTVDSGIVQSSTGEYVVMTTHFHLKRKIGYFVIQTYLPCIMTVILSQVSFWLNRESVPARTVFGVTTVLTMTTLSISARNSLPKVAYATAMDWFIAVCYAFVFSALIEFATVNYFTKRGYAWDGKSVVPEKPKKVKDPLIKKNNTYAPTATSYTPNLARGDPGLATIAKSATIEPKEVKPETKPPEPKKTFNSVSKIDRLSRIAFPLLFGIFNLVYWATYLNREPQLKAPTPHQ
# T3 sequence (P47870 25-512 partner limits assumed): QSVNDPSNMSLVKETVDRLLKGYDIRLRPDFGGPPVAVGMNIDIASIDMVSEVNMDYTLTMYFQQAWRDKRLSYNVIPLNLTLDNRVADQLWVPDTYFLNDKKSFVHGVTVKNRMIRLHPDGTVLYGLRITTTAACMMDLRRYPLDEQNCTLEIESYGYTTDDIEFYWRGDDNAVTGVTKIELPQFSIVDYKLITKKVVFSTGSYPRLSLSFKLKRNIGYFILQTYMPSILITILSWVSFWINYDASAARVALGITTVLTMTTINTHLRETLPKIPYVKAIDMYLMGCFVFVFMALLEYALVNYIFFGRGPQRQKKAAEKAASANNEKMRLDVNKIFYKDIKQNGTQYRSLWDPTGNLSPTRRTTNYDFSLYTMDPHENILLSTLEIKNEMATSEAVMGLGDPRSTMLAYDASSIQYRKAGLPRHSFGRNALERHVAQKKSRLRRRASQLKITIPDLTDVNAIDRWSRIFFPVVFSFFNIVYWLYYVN
# T3 sequence (P18507 40-475): as the sequence (P18507 40-475) above
# Procedure, shortened: as §1
# [2] = listed as 9-Amino-2-cyclobutyl-5-((M)-2-fluoro-6-methoxyphenyl)-2,3-dihydro-pyrrolo[3,4-b]
# [3] = listed as 9-amino-6-fluoro-5-(2-fluoro-6-methoxyphenyl)-2-methyl-2,3-dihydro-1H-pyrrolo[3
# [4] = listed as 9-amino-2-cyclobutyl-5-(2-fluoro-6-methoxyphenyl)-2,3-dihydro-1H-pyrrolo[3,4-b]q
smiles,measurement,setting,value
"N#Cc1ccccc1-c1cccc2c(N)c3c(nc12)CN(C1CCC1)C3=O [Example 76, 2-(9-Amino-2-cyclobutyl-1-oxo-2,3-dihydro-1H-pyrrolo[3,4-b]quinolin-5-yl)benzonitrile]",Relative Potentiation for GABAA2,GABAA receptor α2β3γ2,0.12
same,Ki,[1],0.973 nM
same,Relative Potentiation for GABAA1,GABAA receptor α1β2γ2,−0.036
"CCCN1Cc2nc3c(-c4ccc(OC)cc4OC)cccc3c(N)c2C1=O [9-amino-5-(2,4-dimethoxyphenyl)-2-propyl-2,3-dihydro-1H-pyrrolo[3,4-b]quinolin-1-one]",Relative Potentiation for GABAA2,GABAA receptor α2β3γ2,0.31
same,Ki,[1],49.8 nM
same,Relative Potentiation for GABAA1,GABAA receptor α1β2γ2,0.25
"Cc1cccc(C)c1-c1cccc2c(N)c3c(nc12)CN(C1CC1)C3=O [9-amino-2-cyclopropyl-5-(2,6-dimethylphenyl)-2,3-dihydro-1H-pyrrolo[3,4-b]quinolin-1-one]",Relative Potentiation for GABAA2,GABAA receptor α2β3γ2,0.025
same,Ki,[1],23.9 nM
same,Relative Potentiation for GABAA1,GABAA receptor α1β2γ2,−0.07
"CCCN1Cc2nc3c(-c4cc(C)cnc4Cl)cccc3c(N)c2C1=O [9-amino-5-(2-chloro-5-methylpyridin-3-yl)-2-propyl-2,3-dihydro-1H-pyrrolo[3,4-b]quinolin-1-one]",Relative Potentiation for GABAA2,GABAA receptor α2β3γ2,0.61
same,Ki,[1],6.63 nM
same,Relative Potentiation for GABAA1,GABAA receptor α1β2γ2,0.44
"COc1cccc(-c2cccc3c(N)c4c(nc23)CN(C2CC2)C4=O)c1F [Example 22, 9-Amino-2-cyclopropyl-5-(2-fluoro-3-methoxyphenyl)-2,3-dihydropyrrolo[3,4-b]quinolin-1-one]",Relative Potentiation for GABAA2,GABAA receptor α2β3γ2,0.14
same,Ki,[1],18.2 nM
same,Relative Potentiation for GABAA1,GABAA receptor α1β2γ2,0.07
"COc1cccc(Cl)c1-c1cccc2c(N)c3c(nc12)CN(C1CCC1)C3=O [9-amino-5-(2-chloro-6-methoxyphenyl)-2-cyclobutyl-2,3-dihydro-1H-pyrrolo[3,4-b]quinolin-1-one]",Relative Potentiation for GABAA2,GABAA receptor α2β3γ2,0.051
same,Ki,[1],2.22 nM
same,Relative Potentiation for GABAA1,GABAA receptor α1β2γ2,−0.15
"CCN1Cc2nc3c(-c4c(F)cccc4OC)cccc3c(N)c2C1=O [Example 17, 9-Amino-2-ethyl-5-(2-fluoro-6-methoxyphenyl)-2,3-dihydropyrrolo[3,4-b]quinolin-1-one]",Relative Potentiation for GABAA2,GABAA receptor α2β3γ2,0.15
same,Ki,[1],4.36 nM
same,Relative Potentiation for GABAA1,GABAA receptor α1β2γ2,−0.11
"CCCN1Cc2nc3c(-c4cc(C)cc(C)c4)cccc3c(N)c2C1=O [Example 7, 9-Amino-5-(3,5-dimethylphenyl)-2-propyl-2,3-dihydropyrrolo[3,4-b]quinolin-1-one]",Relative Potentiation for GABAA2,GABAA receptor α2β3γ2,0.27
same,Ki,[1],94.3 nM
same,Relative Potentiation for GABAA1,GABAA receptor α1β2γ2,0.16
"COc1cc(F)ccc1-c1c(F)ccc2c(N)c3c(nc12)CN(C1CCC1)C3=O [9-Amino-2-cyclobutyl-6-fluoro-5-(4-fluoro-2-methoxyphenyl)-2,3-dihydropyrrolo[3,4-b]quinolin-1-one]",Relative Potentiation for GABAA2,GABAA receptor α2β3γ2,0.15
same,Ki,[1],1.2 nM
same,Relative Potentiation for GABAA1,GABAA receptor α1β2γ2,0.0067
"CCCN1Cc2nc3c(-c4cccc(C)c4)cccc3c(N)c2C1=O [9-amino-2-propyl-5-(3-methylphenyl)-2,3-dihydro-1H-pyrrolo[3,4-b]quinolin-1-one]",Relative Potentiation for GABAA2,GABAA receptor α2β3γ2,0.29
same,Ki,[1],44.6 nM
same,Relative Potentiation for GABAA1,GABAA receptor α1β2γ2,0.38
"CCN1Cc2nc3c(-c4cc(F)ccc4OC)c(F)ccc3c(N)c2C1=O [Example 46, 9-Amino-2-ethyl-6-fluoro-5-(5-fluoro-2-methoxyphenyl)-2,3-dihydropyrrolo[3,4-b]quinolin-1-one]",Relative Potentiation for GABAA2,GABAA receptor α2β3γ2,0.3
same,Ki,[1],17.3 nM
same,Relative Potentiation for GABAA1,GABAA receptor α1β2γ2,−0.008
"N#Cc1cc(F)ccc1-c1cccc2c(N)c3c(nc12)CN(C1CCC1)C3=O [2-(9-Amino-2-cyclobutyl-1-oxo-2,3-dihydro-1H-pyrrolo[3,4-b]quinolin-5-yl)-5-fluorobenzonitrile]",Relative Potentiation for GABAA2,GABAA receptor α2β3γ2,0.11
same,Ki,[1],4.19 nM
same,Relative Potentiation for GABAA1,GABAA receptor α1β2γ2,−0.024
COc1ncccc1-c1c(F)ccc2c(N)c3c(nc12)CN(C1CCOC1)C3=O (stereo not drawn),Relative Potentiation for GABAA2,GABAA receptor α2β3γ2,0.32
same,Ki,[1],18.8 nM
same,Relative Potentiation for GABAA1,GABAA receptor α1β2γ2,0.097
"COc1ccccc1-c1c(F)ccc2c(N)c3c(nc12)CN(C1CCC1)C3=O [9-Amino-2-cyclobutyl-6-fluoro-5-(2-methoxyphenyl)-2,3-dihydropyrrolo[3,4-b]quinolin-1-one]",Relative Potentiation for GABAA2,GABAA receptor α2β3γ2,0.2
same,Ki,[1],1.56 nM
same,Relative Potentiation for GABAA1,GABAA receptor α1β2γ2,−0.047
"CCN1Cc2nc3c(-c4cccc(OC)c4F)cccc3c(N)c2C1=O [Example 33, 9-Amino-2-ethyl-5-(2-fluoro-3-methoxyphenyl)-2,3-dihydropyrrolo[3,4-b]quinolin-1-one]",Relative Potentiation for GABAA2,GABAA receptor α2β3γ2,0.21
same,Ki,[1],9.93 nM
same,Relative Potentiation for GABAA1,GABAA receptor α1β2γ2,0.01
"CCCN1Cc2nc3c(-c4ccc(C)nc4Cl)cccc3c(N)c2C1=O [Example 15, 9-Amino-5-(2-chloro-6-methylpyridin-3-yl)-2-propyl-2,3-dihydropyrrolo[3,4-b]quinolin-1-one]",Relative Potentiation for GABAA2,GABAA receptor α2β3γ2,0.87
same,Ki,[1],7.06 nM
same,Relative Potentiation for GABAA1,GABAA receptor α1β2γ2,0.29
"COc1cnc(OC)c(-c2cccc3c(N)c4c(nc23)CN(C2CCC2)C4=O)c1 [9-Amino-2-cyclobutyl-5-(2,5-dimethoxypyridin-3-yl)-2,3-dihydropyrrolo[3,4-b]quinolin-1-one]",Relative Potentiation for GABAA2,GABAA receptor α2β3γ2,0.47
same,Ki,[1],3.35 nM
same,Relative Potentiation for GABAA1,GABAA receptor α1β2γ2,0.087
"COc1cccc(F)c1-c1cccc2c(N)c3c(nc12)CN(C1CCC1)C3=O (single isomer, unassigned) [Example 130, 9-Amino-2-cyclobutyl-5-((M)-2-fluoro-6-methoxyphenyl)-2,3-dihydropyrrolo[3,4-b]quinolin-1-one]",Relative Potentiation for GABAA2,GABAA receptor α2β3γ2; [2],0.23
same,Ki,[1],9.21 nM
same,Relative Potentiation for GABAA1,GABAA receptor α1β2γ2; [2],0.002
COc1cccc(F)c1-c1cccc2c(N)c3c(nc12)CN([C@H]1C[C@@H](C)C1)C3=O,Relative Potentiation for GABAA2,GABAA receptor α2β3γ2,0.39
same,Ki,[1],0.945 nM
same,Relative Potentiation for GABAA1,GABAA receptor α1β2γ2,0.054
"COc1cc(-c2cccc3c(N)c4c(nc23)CN(C2CCC2)C4=O)c(F)cn1 [9-Amino-2-cyclobutyl-5-(5-fluoro-2-methoxypyridin-4-yl)-2,3-dihydropyrrolo[3,4-b]quinolin-1-one]",Relative Potentiation for GABAA2,GABAA receptor α2β3γ2,0.33
same,Ki,[1],6.7 nM
same,Relative Potentiation for GABAA1,GABAA receptor α1β2γ2,0.065
"COc1cccc(F)c1-c1c(F)ccc2c(N)c3c(nc12)CN(C)C3=O [Example 70, 9-Amino-6-fluoro-5-(2-fluoro-6-methoxyphenyl)-2-methyl-2,3-dihydropyrrolo[3,4-b]quinolin-1-one]",Relative Potentiation for GABAA2,GABAA receptor α2β3γ2; [3],0.16
same,Ki,[1],8.11 nM
same,Relative Potentiation for GABAA1,GABAA receptor α1β2γ2; [3],0.02
"COc1cccc(-c2cccc3c(N)c4c(nc23)CN(C2CCC2)C4=O)c1F [9-Amino-2-cyclobutyl-5-(2-fluoro-3-methoxyphenyl)-2,3-dihydropyrrolo[3,4-b]quinolin-1-one]",Relative Potentiation for GABAA2,GABAA receptor α2β3γ2,0.26
same,Ki,[1],4.19 nM
same,Relative Potentiation for GABAA1,GABAA receptor α1β2γ2,0.062
"COc1cccc(F)c1-c1cccc2c(N)c3c(nc12)CN(C1CCC1)C3=O [Example 18, 9-Amino-2-cyclobutyl-5-(2-fluoro-6-methoxyphenyl)-2,3-dihydropyrrolo[3,4-b]quinolin-1-one]",Relative Potentiation for GABAA2,GABAA receptor α2β3γ2; [4],0.2
same,Ki,[1],1.62 nM
same,Relative Potentiation for GABAA1,GABAA receptor α1β2γ2; [4],−0.07
"Nc1c2c(nc3c(-c4ncccn4)cccc13)CN(C1CCC1)C2=O [9-Amino-2-cyclobutyl-5-pyrimidin-2-yl-2,3-dihydropyrrolo[3,4-b]quinolin-1-one]",Relative Potentiation for GABAA2,GABAA receptor α2β3γ2,0.12
same,Ki,[1],8.3 nM
same,Relative Potentiation for GABAA1,GABAA receptor α1β2γ2,0.013
"COc1ccc(-c2c(F)ccc3c(N)c4c(nc23)CN(C2CCC2)C4=O)c(OC)c1 [Example 100, 9-Amino-2-cyclobutyl-5-(2,4-dimethoxyphenyl)-6-fluoro-2,3-dihydropyrrolo[3,4-b]quinolin-1-one]",Relative Potentiation for GABAA2,GABAA receptor α2β3γ2,0.23
same,Ki,[1],0.249 nM
same,Relative Potentiation for GABAA1,GABAA receptor α1β2γ2,0.044
"CCN1Cc2nc3c(-c4cc(OC)ccc4F)cccc3c(N)c2C1=O [Example 72, 9-Amino-2-ethyl-5-(2-fluoro-5-methoxyphenyl)-2,3-dihydropyrrolo[3,4-b]quinolin-1-one]",Relative Potentiation for GABAA2,GABAA receptor α2β3γ2,0.12
same,Ki,[1],13.3 nM
same,Relative Potentiation for GABAA1,GABAA receptor α1β2γ2,0.02
"CCCN1Cc2nc3c(-c4cccc(C)c4C)cccc3c(N)c2C1=O [Example 6, 9-Amino-5-(2,3-dimethylphenyl)-2-propyl-2,3-dihydropyrrolo[3,4-b]quinolin-1-one]",Relative Potentiation for GABAA2,GABAA receptor α2β3γ2,0.22
same,Ki,[1],17.3 nM
same,Relative Potentiation for GABAA1,GABAA receptor α1β2γ2,0.13
"CCCN1Cc2nc3c(-c4cnc(F)c(C)c4)cccc3c(N)c2C1=O [9-amino-5-(6-fluoro-5-methylpyridin-3-yl)-2-propyl-2,3-dihydro-1H-pyrrolo[3,4-b]quinolin-1-one]",Relative Potentiation for GABAA2,GABAA receptor α2β3γ2,0.32
same,Ki,[1],30.3 nM
same,Relative Potentiation for GABAA1,GABAA receptor α1β2γ2,0.31
